Data set [1] deals with BAF3-EGFR (del19/T790M/C797S) cells. Description: Inhibition of proliferation of BAF3-EGFR (Del19/T790M/C797S) cells, CCK-8. The note with it: Ba/F3 EGFR-Del19/T790M/C797S, 72 h, read-out: BAF3(EGFR T790M Del19 C797S) cell inhibitory activity IC50. The data set is classed as cell-based. Here is the method:
(§1) A flask of BAF3-EGFR (del19/T790M/C797S) cells in the logarithmic growth phase and good conditions was taken, and the cells were collected and added to a centrifuge tube. 20 μL of cells were taken and counted, and the required number of cells (mL) was pipetted and centrifuged at 1200 rpm for 3 min. The supernatant was discarded, and an appropriate amount of plating medium (RPMI medium+10% FBS) was added to adjust the cell density to 1.0×10^5 cells/mL. The cells were seeded on a 96-well plate at 100 μL/well using a multi-channel pipette and cultured in a cell incubator at 37° C., 5% CO2 with saturated humidity. After overnight incubation, compounds were loaded using a nanoliter pipettor, 2 duplicate wells were set for each concentration, and cells without compound added were used as negative controls.
(§2) Inhibition rate (%)=(mean value of negative control group-mean value of experimental group)/(mean value of negative control group−mean value of blank group)×100%.
(§3) A dose-response curve was fitted by four-parameter analysis, with the logarithm of compound concentration serving as abscissa and inhibition rate serving as ordinate, such that IC50 was calculated.

Data set [2] concerns the target EGFR (d746-750/T790M/C797S) (Homo sapiens (Human), UniProt P00533, C797S/DEL746-750/T790M). Description: Inhibitory activity for EGFR (d746-750/T790M/C797S) kinase. In kind it is biochemical. The note with it: ATP 5 μM; read-out: EGFR(d19/T790M/C797S) (IC50). Here is the method: 1.5 Screening for Inhibitory Activity for EGFR (d746-750/T790M/C797S) Kinase
(§4) A 50 ng/μL EGFR (d746-750/T790M/C797S, BPS) stock solution was diluted with a kinase buffer (50 mM HEPES, 10 mM MgCl2, 2 mM DTT, 1 mM EGTA, 0.01% Tween 20), and 6 μL of 1.67× working solution at 0.05 ng/μL (final concentration: 0.03 ng/μL) was added to each well. Different compounds dissolved in DMSO were added to the wells using a nanoliter pipettor, resulting in the final concentrations of the compounds of 10 nM to 0.0024 nM (4-fold gradient for 7 concentrations in total), and blank control wells (without enzyme) and negative control wells (with enzyme, plus vehicle DMSO) were set, 2 replicate wells for each concentration. After enzyme was reacted with the compound or vehicle for 30 min, 5×ATP at 25 μM (final concentration: 5 μM, Sigma) prepared with a kinase buffer was mixed with 5× substrate at 0.5 μM (final concentration: 0.1 μM, ULight-poly GT, PerkinElmer) at a ratio of 1:1 (v:v), and the mixture was added to each well at 4 μL/well. After being sealed with a film, the plate was incubated at room temperature for 2 h, and then 5 μL of 4×EDTA at 40 mM (final concentration: 10 mM) was added to each well. After the plate was incubated for 5 min at room temperature, 5 μL of 4× detection reagent at 8 nM (final concentration: 2 nM, Eu-anti-phospho-tyrosine antibody, PerkinElmer) was added to each well. After being incubated at room temperature for 1 h, the plate was read using a PerkinElmer Envision multi-mode microplate reader (excitation: 320 nm, emission: 665 nm), and IC50 was calculated by four-parameter fitting.

Data set [3] concerns BAF3-EGFR (L858R/T790M/C797S) cells. Description: Inhibition of proliferation of BAF3-EGFR (L858R/T790M/C797S) cells, CCK-8. The data set is classed as cell-based. The settings on record: Ba/F3 EGFR, 72 h, read-out: BAF3(EGFR T790M L858R C797S) cell inhibitory activity IC50. How it is done: as §1, with “EGFR (L858R/T790M/C797S)” for “BAF3-EGFR (del19/T790M/C797S)”, “1.5×10^5” for “1.0×10^5”
as §2, §3

In data set [4] the target is EGFR (d746-750 (d19)/T790M) (Homo sapiens (Human), UniProt P00533, DEL746-750/T790M). Description: Inhibitory activity for EGFR (d746-750 (d19)/T790M) kinase. The data set is classed as biochemical. The note with it: ATP 5 μM. How it is done:
1.3 Screening for Inhibitory Activity for EGFR (d746-750 (d19)/T790M) Kinase
as §4, with “(d746-750/T790M, Carna)” for “(d746-750/T790M/C797S, BPS)”, “0.005” for “0.05”, “0.003” for “0.03”

Data set [5] in a line: In vivo pharmacokinetics in ICR mice. The note with it: for AUC(0-t): read-out: AUC(0-t); for MRT last: read-out: MRT(0-t); for half-life: read-out: T½ (converted). How it is done:
The animals to be tested (ICR mice) were fasted for 12 h before administration and food was provided 4 h after administration, and water was freely drunk before and after the experiment and during the experiment.
After intragastric administration, about 0.1 mL of blood was collected from the orbit at 0 min, 15 min, 30 min, 1 h, 2 h, 4 h, 6 h, 8 h, 10 h, and 24 h. After anticoagulation with EDTA-K2, blood samples were transferred to a centrifuge within 30 min, and centrifuged at 4000 rpm for 10 min at 4° C. to separate the plasma. All the plasma samples were collected and immediately stored at −20° C. for testing.
300 μL of acetonitrile solution containing an internal standard ([…] diazepam) was added to 20 μL of the plasma sample to be tested and a standard curve sample. The mixture was shaken and homogeneously mixed for 5 min, and centrifuged at 12,000 rpm for 10 min. 70 μL of supernatant was taken and diluted with 70 μL of ultrapure water. After being mixed well, 2 μL of the resulting sample was subjected to LC/MS/MS, and a chromatogram was recorded.

The mark [6] stands for this setting: mouse, plasma, PO, 10 mg/kg intragastric.

Read-outs that look alike come from different tables or passages of the source. Some results are limits rather than exact numbers.

Sequence of EGFR (d746-750 (d19)/T790M) (P00533 other isoform, or with tags, fused parts or gaps T790M/del 1-668/del 746-750 limits assumed): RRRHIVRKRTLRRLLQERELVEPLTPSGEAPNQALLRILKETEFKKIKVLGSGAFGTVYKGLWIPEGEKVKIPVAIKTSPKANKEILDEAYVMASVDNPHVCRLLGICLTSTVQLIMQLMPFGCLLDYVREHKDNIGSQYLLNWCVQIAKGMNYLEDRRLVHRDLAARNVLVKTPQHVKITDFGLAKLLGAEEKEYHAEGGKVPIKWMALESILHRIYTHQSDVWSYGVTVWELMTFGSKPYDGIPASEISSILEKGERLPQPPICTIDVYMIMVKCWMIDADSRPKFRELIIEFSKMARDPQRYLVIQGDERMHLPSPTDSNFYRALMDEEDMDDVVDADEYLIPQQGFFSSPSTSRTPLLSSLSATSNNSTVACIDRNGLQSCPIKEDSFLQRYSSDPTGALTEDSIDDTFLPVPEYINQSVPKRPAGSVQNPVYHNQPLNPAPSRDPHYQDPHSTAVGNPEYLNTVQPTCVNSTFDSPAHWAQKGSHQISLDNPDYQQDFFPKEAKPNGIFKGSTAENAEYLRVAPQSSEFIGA
Sequence of EGFR (d746-750/T790M/C797S) (P00533 other isoform, or with tags, fused parts or gaps T790M/C797S/del 1-694/del 746-750 limits assumed): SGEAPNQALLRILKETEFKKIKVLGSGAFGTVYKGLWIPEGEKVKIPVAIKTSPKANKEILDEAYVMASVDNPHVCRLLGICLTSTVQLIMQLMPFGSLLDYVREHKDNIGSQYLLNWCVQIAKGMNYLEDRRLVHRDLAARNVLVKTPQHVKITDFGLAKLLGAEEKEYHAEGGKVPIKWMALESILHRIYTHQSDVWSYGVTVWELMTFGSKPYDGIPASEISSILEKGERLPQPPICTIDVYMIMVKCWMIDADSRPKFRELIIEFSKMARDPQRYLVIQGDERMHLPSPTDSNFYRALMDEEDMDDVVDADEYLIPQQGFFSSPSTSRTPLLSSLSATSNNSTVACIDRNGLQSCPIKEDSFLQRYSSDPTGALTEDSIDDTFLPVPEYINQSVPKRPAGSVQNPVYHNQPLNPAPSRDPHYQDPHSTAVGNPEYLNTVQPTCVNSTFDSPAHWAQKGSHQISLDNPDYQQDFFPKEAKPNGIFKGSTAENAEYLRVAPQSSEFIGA

On to `Cc1cc2cc(n1)-c1cnn(C3CC3)c1OCCC[C@@H](C)CN1/C(=N/C2=O)Nc2ccc(NCCN(C)C)cc21` [Example 17], for which the IC50 in data set [1] was under 1 nM; in data set [2], 0.014 nM; in data set [3], under 5 nM; in data set [4], 0.012 nM.
Take `Cc1cc2cc(n1)-c1cnn(C)c1OCCC[C@@H](C1CC1)CN1/C(=N/C2=O)Nc2ccc(NCCN3CCCCC3)cc21` [Example 83]: the IC50 in data set [1] was under 1 nM; in data set [2], 0.017 nM; in data set [3], under 5 nM; in data set [4] it was 0.013 nM.
Broadly, the AUC(0-inf) is the area under the concentration-time curve extrapolated to infinity. A low value points to less exposure. The term AUC(0-t) denotes the area under the concentration-time curve up to a stated or last time point. One may read the bioavailability as dose-corrected exposure relative to a reference, in per cent. Higher therefore signals much systemic uptake. What is called Cmax is the peak of the concentration-time curve. For orientation: Tmax means the time at which the peak concentration occurs. `CCC1(Nc2ccc3c(c2)N/C2=N\C(=O)c4cc(C)nc(c4)-c4cnn(C)c4OCCC[C@@H](C4CC4)CN23)COC1` [Example 90]: the IC50 in data set [1] was under 1 nM. In data set [3], the IC50 is under 5 nM. In data set [5] (IV), this molecule came in with a CLz of 37.8 mL/min/kg. Besides, in data set [5] (mouse, plasma, 1 mg/kg, IV), the AUC(0-inf) is 441 ng·h/mL, the AUC(0-t) stood at 441 ng·h/mL, the MRT last stood at 1.65 h and the half-life was 1.58 h. The same molecule had a bioavailability in data set [5] (mouse, plasma, 10 mg/kg, PO vs IV) of 68.4%. For the same molecule, in data set [5] (setting [6]), the AUC(0-inf) is 3020 ng·h/mL, the AUC(0-t) is 3010 ng·h/mL, the MRT last came to 6.47 h and the half-life is 2.46 h. For the same molecule, in data set [5] (mouse, plasma, PO, 10 mg/kg intragastric, read-out: Cmax), the Cmax amounted to 352 ng/mL. Besides, the Tmax in data set [5] (mouse, plasma, PO, 10 mg/kg intragastric, read-out: Tmax) turned out to be 0.5 h.
For `CCC1(CNc2ccc3c(c2)N/C2=N\C(=O)c4cc(C)nc(c4)-c4cnn(C)c4OCCC[C@@H](C4CC4)CN23)COC1` [Example 92], the IC50 in data set [1] is under 1 nM; in data set [3], under 5 nM.
Regarding `Cc1cc2cc(n1)-c1cnn(C)c1OCCC[C@@H](C1CC1)CN1/C(=N/C2=O)Nc2ccc(NCCN)cc21` [Example 58], the IC50 in data set [1] was under 1 nM; in data set [2], 0.015 nM; in data set [3], under 5 nM; in data set [4], 0.0094 nM.
The like results for `Cc1cc2cc(n1)-c1cnn(C)c1OCCC[C@@H](C1CC1)CN1/C(=N/C2=O)Nc2ccc(NCCCN(C)C)cc21` [Example 27] were, in that order, under 1 nM, 0.027 nM, under 5 nM and 0.019 nM.
In the case of `Cc1cc2cc(n1)-c1cnn(C)c1OCCC[C@@H](C1CC1)CN1/C(=N/C2=O)Nc2cc(NC(C)CN(C)C)ccc21` (stereo partly drawn) [Example 62], the IC50 in data set [1] is under 1 nM; in data set [2], 0.022 nM; in data set [3] it was under 5 nM; in data set [4], 0.013 nM.
In the same order, the values of `Cc1cc2cc(n1)-c1cnn(C)c1OCCC[C@@H](C1CC1)CN1/C(=N/C2=O)Nc2ccc(OCCN(C)C)cc21` [Example 11] are under 1 nM, 0.024 nM, under 5 nM and 0.025 nM.
With `Cc1cc2cc(n1)-c1cnn(C)c1OCCC[C@@H](C1CC1)CN1/C(=N/C2=O)Nc2ccc(N[C@H](C)CN(C)C)cc21` [Example 65], the IC50 was under 1 nM in data set [1] and under 5 nM in data set [3].
With `Cc1cc2cc(n1)-c1cnn(C)c1OCCC[C@@H](C1CC1)CN1/C(=N/C2=O)Nc2cc(NCC3COC3)ccc21` [Example 36], the IC50 is under 1 nM in data set [1], 0.022 nM in data set [2], under 5 nM in data set [3] and 0.015 nM in data set [4].
Regarding `Cc1cc2cc(n1)-c1cnn(C)c1OCCC[C@@H](C1CC1)CN1/C(=N/C2=O)Nc2cc(NCC3CCOCC3)ccc21` [Example 22], the IC50 is under 1 nM in data set [1], 0.03 nM in data set [2], under 5 nM in data set [3] and 0.018 nM in data set [4].
The like results for `Cc1cc2cc(n1)-c1cnn(C)c1OCCC[C@@H](C1CC1)CN1/C(=N/C2=O)Nc2cc(NCCN(C)C)ccc21` [Example 42] were, in that order, under 1 nM, 0.012 nM, under 5 nM and 0.0076 nM.

The record behind these values is patent publication US20250034165A1, “COMPOUND CONTAINING CYCLOALKYL OR HALOALKYL” (CHIA TAI TIANQING PHARMACEUTICAL GROUP CO., LTD., priority 2021, published 2025).
